test system: JR251 or RBL cells; experiment: Store-operated calcium entry, either JR251 or RBL cells, or both; assay type: cell-based
In short: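 Orai1/STIM1 stable cells: fluo-4-AM loaded, compound 30 min at RT in Ca2+-free HBSS, then CaCl2 added; IC50 from Peak-Basal FLIPR fluorescence. RBL-2H3 cells: compound 5 min, then thapsigargin (5.5× stock, 5.5 uM) 25 min, then calcium added; IC50 from Upslope (signal 7 s after calcium minus baseline).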

SMILES	IC50
N#Cc1ccc(-c2csc(NC(=O)CCc3ccccc3)c2C(=O)O)cc1 [4-(4-cyanophenyl)-2-(3-phenylpropanamido)thiophene-3-carboxylic acid]	< 10 µM
O=C(O)c1c(-c2ccc(Cl)cc2)csc1NC(=O)C(Cl)Cc1ccccc1 (stereo not shown) [2-(2-chloro-3-phenylpropanamido)-4-(4-chlorophenyl)thiophene-3-carboxylic acid]	< 10 µM
O=C(Nc1scc(-c2ccc(Cl)cc2)c1C(=O)O)c1nccc(-c2ccccc2)n1 [4-(4-chlorophenyl)-2-(4-phenylpyrimidine-2-carboxamido)thiophene-3-carboxylic acid]	< 10 µM
O=C(CCc1ccccc1F)Nc1scc(-c2ccc(Cl)cc2)c1C(=O)O [4-(4-chlorophenyl)-2-(3-(2-fluorophenyl)propanamido)thiophene-3-carboxylic acid]	< 10 µM
O=C(Nc1scc(-c2ccc(Cl)cc2)c1C(=O)O)c1cc2c(F)cccn2n1 [4-(4-chlorophenyl)-2-(4-fluoropyrazolo[1,5-a]pyridine-2-carboxamido)thiophene-3-carboxylic acid]	< 10 µM
NC(=O)c1c(-c2ccc(Br)cc2)csc1-n1c(C(=O)O)nc2ccccc21 [N-(4-(4-bromophenyl)-3-carbamoylthiophen-2-yl)-1H-benzo[d]imidazole-2-carboxylic acid]	< 10 µM
O=C(Nc1scc(-c2ccc(Br)cc2)c1C(=O)O)c1ccco1 [4-(4-bromophenyl)-2-(furan-2-carboxamido)thiophene-3-carboxylic acid]	< 10 µM
Cc1ccc(-c2csc(NC(=O)c3cc4sccc4s3)c2C(=O)O)c(F)c1F [4-(2,3-difluoro-4-methylphenyl)-2-(thieno[3,2-b]thiophene-2-carboxamido)thiophene-3-carboxylic acid]	< 10 µM
O=C(Nc1scc(-c2ccc(Cl)cc2)c1C(=O)O)c1ccc2scnc2c1 [2-(benzo[d]thiazole-5-carboxamido)-4-(4-chlorophenyl)thiophene-3-carboxylic acid]	< 10 µM
Cc1ccc(-c2csc(NC(=O)c3cn4ccsc4n3)c2C(=O)O)c(F)c1F [4-(2,3-difluoro-4-methylphenyl)-2-(imidazo[2,1-b]thiazole-6-carboxamido)thiophene-3-carboxylic acid]	< 10 µM
COc1c(F)ccc(-c2csc(NC(=O)c3nc4ccccc4o3)c2C(=O)O)c1F [2-(benzo[d]oxazole-2-carboxamido)-4-(2,4-difluoro-3-methoxyphenyl)thiophene-3-carboxylic acid]	< 10 µM
O=C(CCc1ccc(F)cc1)Nc1scc(-c2ccc(Cl)cc2)c1C(=O)O [4-(4-chlorophenyl)-2-(3-(4-fluorophenyl)propanamido)thiophene-3-carboxylic acid]	< 10 µM
Cc1nnsc1C(=O)Nc1scc(-c2ccc(Br)cc2)c1C(=O)O [4-(4-bromophenyl)-2-(4-methyl-1,2,3-thiadiazole-5-carboxamido)thiophene-3-carboxylic acid]	< 10 µM
CC(C)S(=O)(=O)c1csc(C(=O)Nc2scc(-c3ccc(Cl)cc3)c2C(=O)O)c1Cl [2-(3-chloro-4-(isopropylsulfonyl)thiophene-2-carboxamido)-4-(4-chlorophenyl)thiophene-3-carboxylic acid]	< 10 µM
Cc1cc(C(=O)Nc2scc(-c3ccc(Cl)cc3)c2C(=O)O)c(C)o1 [4-(4-chlorophenyl)-2-(2,5-dimethylfuran-3-carboxamido)thiophene-3-carboxylic acid]	< 10 µM
COc1ccc(C(=O)Nc2scc(-c3ccc(Cl)cc3)c2C(=O)O)c(OC)n1 [4-(4-chlorophenyl)-2-(2,6-dimethoxynicotinamido)thiophene-3-carboxylic acid]	< 10 µM
O=C(O)c1c(-c2ccc(Br)cc2)csc1NC(=O)C(F)Cc1cc(F)ccc1Cl (stereo not shown) [4-(4-bromophenyl)-2-(3-(2-chloro-5-fluorophenyl)-2-fluoropropanamido)thiophene-3-carboxylic acid]	< 10 µM
O=C(O)c1c(-c2ccc(Cl)cc2)csc1NC(=O)C1(c2ccc(Cl)cc2)CC1 [4-(4-chlorophenyl)-2-(1-(4-chlorophenyl)cyclopropanecarboxamido)thiophene-3-carboxylic acid]	< 10 µM
CS(=O)(=O)c1csc(C(=O)Nc2scc(-c3ccc(Cl)cc3)c2C(=O)O)c1Cl [2-(3-chloro-4-(methylsulfonyl)thiophene-2-carboxamido)-4-(4-chlorophenyl)thiophene-3-carboxylic acid]	< 10 µM
O=C(Nc1scc(-c2ccc(Br)cc2)c1C(=O)O)c1cc2ccccn2n1 [4-(4-bromophenyl)-2-(pyrazolo[1,5-a]pyridine-2-carboxamido)thiophene-3-carboxylic acid]	< 10 µM
O=C(O)c1c(-c2ccc(Cl)cc2)csc1NC(=O)C1Cc2ccccc21 (stereo not shown) [4-(4-chlorophenyl)-2-(1,2-dihydrocyclobutabenzene-1-carboxamido)thiophene-3-carboxylic acid]	< 10 µM
O=C(Nc1scc(-c2ccc(Cl)cc2)c1C(=O)O)c1nc2c([N+](=O)[O-])cccc2s1 [4-(4-chlorophenyl)-2-(4-nitrobenzo[d]thiazole-2-carboxamido)thiophene-3-carboxylic acid]	< 10 µM

SMILES	IC50
O=C(Nc1scc(-c2ccc(Cl)c(Cl)c2)c1C(=O)O)c1ccc2snnc2c1 [2-(benzo[d][1,2,3]thiadiazole-5-carboxamido)-4-(3,4-dichlorophenyl)thiophene-3-carboxylic acid]	< 10 µM
COc1cc(C)c(-c2csc(NC(=O)c3cc4ccccc4o3)c2C(=O)O)cc1C [2-(benzofuran-2-carboxamido)-4-(4-methoxy-2,5-dimethylphenyl)thiophene-3-carboxylic acid]	< 10 µM
Cc1ccc(-c2csc(NC(=O)c3cc(-c4ccccc4)oc3C)c2C(=O)O)cc1 [2-(2-methyl-5-phenylfuran-3-carboxamido)-4-p-tolylthiophene-3-carboxylic acid]	< 10 µM
O=C(Nc1scc(-c2cc3ccccc3o2)c1C(=O)O)c1cc2ccccc2o1 [2-(benzofuran-2-carboxamido)-4-(benzofuran-2-yl)thiophene-3-carboxylic acid]	< 10 µM
Cc1cccc(C)c1CCC(=O)Nc1scc(-c2ccc(Cl)cc2)c1C(=O)O [4-(4-chlorophenyl)-2-(3-(2,6-dimethylphenyl)propanamido)thiophene-3-carboxylic acid]	< 10 µM
Cc1ccc(-c2csc(NC(=O)c3cc4ccccc4o3)c2C(=O)O)c(F)c1F [2-(benzofuran-2-carboxamido)-4-(2,3-difluoro-4-methylphenyl)thiophene-3-carboxylic acid]	< 10 µM
O=C(Nc1scc(-c2ccc(Br)cc2)c1C(=O)O)c1ccc2snnc2c1 [2-(benzo[d][1,2,3]thiadiazole-5-carboxamido)-4-(4-bromophenyl)thiophene-3-carboxylic acid]	< 10 µM
O=C(CCc1ccccc1)Nc1scc(-c2ccc(Br)cc2)c1C(=O)O [4-(4-bromophenyl)-2-(3-phenylpropanamido)thiophene-3-carboxylic acid]	< 10 µM
Cc1ccc(-c2csc(NC(=O)c3nc4cccc(C#N)c4o3)c2C(=O)O)c(F)c1F [2-(7-cyanobenzo[d]oxazole-2-carboxamido)-4-(2,3-difluoro-4-methylphenyl)thiophene-3-carboxylic acid]	< 10 µM
O=C(O)c1c(-c2ccc(Cl)cc2)csc1NC(=O)C(F)Cc1ccccc1 (stereo not shown) [4-(4-chlorophenyl)-2-(2-fluoro-3-phenylpropanamido)thiophene-3-carboxylic acid]	< 10 µM
O=C(Nc1scc(-c2ccc(C(F)(F)F)cc2F)c1C(=O)O)c1nc2ccccc2o1 [2-(benzo[d]oxazole-2-carboxamido)-4-(2-fluoro-4-(trifluoromethyl)phenyl)thiophene-3-carboxylic acid]	< 10 µM
O=C(Nc1scc(-c2ccc(C3CC3)c(F)c2F)c1C(=O)O)c1cc2ccccc2o1 [2-(benzofuran-2-carboxamido)-4-(4-cyclopropyl-2,3-difluorophenyl)thiophene-3-carboxylic acid]	< 10 µM
Cc1ccc(-c2csc(NC(=O)c3ccsc3)c2C(=O)O)cc1 [2-(thiophene-3-carboxamido)-4-p-tolylthiophene-3-carboxylic acid]	< 10 µM
Cn1ncc(C(=O)Nc2scc(-c3ccc(Br)cc3)c2C(=O)O)c1Cl [4-(4-bromophenyl)-2-(5-chloro-1-methyl-1H-pyrazole-4-carboxamido)thiophene-3-carboxylic acid]	< 10 µM
COc1ccc(-c2csc(NC(=O)CCc3ccccc3)c2C(=O)O)cc1 [4-(4-methoxyphenyl)-2-(3-phenylpropanamido)thiophene-3-carboxylic acid]	< 10 µM
O=C(Cc1cc2ccccc2o1)Nc1scc(-c2ccc(Br)cc2)c1C(=O)O [2-(2-(benzofuran-2-yl)acetamido)-4-(4-bromophenyl)thiophene-3-carboxylic acid]	< 10 µM
O=C(Nc1scc(-c2cc3cccc(O)c3o2)c1C(=O)O)c1cc2c(F)cccc2o1 [2-(4-fluorobenzofuran-2-carboxamido)-4-(7-hydroxybenzofuran-2-yl)thiophene-3-carboxylic acid]	< 10 µM
Cc1ccc(-c2csc(NC(=O)c3cc(C)oc3C)c2C(=O)O)cc1 [2-(2,5-dimethylfuran-3-carboxamido)-4-p-tolylthiophene-3-carboxylic acid]	< 10 µM
N#Cc1c(Cl)ccc(-c2csc(NC(=O)c3cc4ccccc4o3)c2C(=O)O)c1Cl [2-(benzofuran-2-carboxamido)-4-(2,4-dichloro-3-cyanophenyl)thiophene-3-carboxylic acid]	< 10 µM
CC(C(=O)Nc1scc(-c2ccc(Cl)cc2)c1C(=O)O)C(C)c1ccccc1 (stereo not shown) [4-(4-chlorophenyl)-2-(2-methyl-3-phenylbutanamido)thiophene-3-carboxylic acid]	< 10 µM
O=C(CC1CCc2ccccc21)Nc1scc(-c2ccc(Cl)cc2)c1C(=O)O (stereo not shown) [4-(4-chlorophenyl)-2-(2-(2,3-dihydro-1H-inden-1-yl)acetamido)thiophene-3-carboxylic acid]	< 10 µM
